Patent US8071810B2, “C5a receptor antagonists” (Jerini AG, priority 2005, dated 2011)
In brackets after ≈: the same amount, converted by molar mass. Several values for one entry are separate records, joined by “and”; a condition that tells them apart may be missing. Equal values may be shown once. Read-outs that look alike come from different tables or passages of the source.

What was measured:
C5a receptor [1] = biological target: T1, C5a receptor (Homo sapiens, UniProt P21730); assay: Binding of 125I-C5a to human C5aR transfected HEK293 cells (Example 27); design: expressed in transfected cells; host or cells: HEK293 cells; conditions: 125I-C5a tracer, read-out: IC50 for the inhibition of the binding of C5a to the C5a receptor
T1 sequence (P21730 1-350): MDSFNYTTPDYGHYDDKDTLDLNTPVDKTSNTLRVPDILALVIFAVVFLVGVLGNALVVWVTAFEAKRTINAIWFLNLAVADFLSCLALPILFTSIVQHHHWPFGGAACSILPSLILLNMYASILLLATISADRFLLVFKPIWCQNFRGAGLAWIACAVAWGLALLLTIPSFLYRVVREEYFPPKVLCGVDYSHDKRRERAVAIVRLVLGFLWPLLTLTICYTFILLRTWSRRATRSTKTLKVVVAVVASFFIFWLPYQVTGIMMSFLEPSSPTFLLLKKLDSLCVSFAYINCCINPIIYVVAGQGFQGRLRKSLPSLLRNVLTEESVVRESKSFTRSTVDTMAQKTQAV
Protocol: The binding studies are done as determination of IC50 values with radioactively labeled C5a (125I) as tracer. For this purpose, human C5aR transfected HEK293 cells are adjusted to a concentration of […]. 30 μl of the cell suspension are added into a microtiter plate. Then the C5a receptor antagonists are added followed by 10 minutes pre-incubation at room temperature. After that, 10 μl of labelled C5a are added (15.000 cpm). The mixture is now incubated over ice for 30 minutes. After this the cells are isolated by means of a filter plate (Millipore MHVB 4510) and washed two times with 100 μl HAG-CM each (see example 32). The cells are dried and, after transferring the filter plate onto the adapter plate (Canberra 6005178), 50 μl/well Microscint 0 are added and the plate is measured in the scintillation counter.

[2] = biological target: T2, human C5a receptor (CD88) (Homo sapiens, UniProt P21730); assay: C5a induced enzyme (glucosaminidase) release assay in RBL cells expressing the human C5a receptor (Example 28); assay type: cell-based; conditions: for IC50: RBL cells with human C5aR
T2 construct: expressed in transfected cells; host or cells: rat basophilic leukemia (RBL) cells, stably transfected
T2 sequence (P21730 1-350): T1 sequence (P21730 1-350)
Procedure, shortened: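 Rat basophilic leukemia (RBL) cells expressing human C5a receptor, at 2×10^6 cells/ml, primed with cytochalasin B, then incubated with test compound 10 min at 37 °C.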

[3] = test system: E. coli induced oxidative burst in human whole blood; assay: E. coli induced oxidative burst in human whole blood (Phagoburst kit, Example 26); assay type: cell-based; conditions: read-out: IC50 for the inhibition of the E. coli induced oxidative burst in human whole blood
Protocol: The whole blood assay is carried out according to the instructions from the Phagoburst-Kit (Orpegen Pharma). 50 μg/ml of Refludan is used to inhibit blood clotting (Mollnes et al. 2002 Blood 100: 1869). Freshly drawn, anticoagulated blood is cooled over ice and 100 μl thereof are added to 10 μl of the compound solution containing at most 1.3% of DMSO. The mixture is incubated for 10 minutes at 37° C. After this the samples are put on ice again and 20 μl of opsonisated E. coli suspension (10^9 cells/ml) is added followed by 10 minutes of incubation at 37° C. 20 μl of the substrate are added to the cells followed by another 10 minutes of incubation at 37° C. After this 2 ml of lysis buffer are added to the cells, which are then kept at room temperature for 20 minutes. The cellular components are separated by centrifugation at 250×g for 5 minutes. The supernatant is discarded and 3 ml of washing solution are added to the pellet. The cells are centrifuged again and the resulting pellet is taken up in 200 μl DNA staining solution. The neutrophiles are analysed by means of a FACS device (FACSCalibur, Becton-Dickinson) according to the parameters given in the manual. […] It can be seen that, due to the determined activity, the compounds of this invention are suited to be used as therapeutics in human.

[4] = biological target: T2, human C5a receptor (CD88); assay: Agonism in enzyme release assay without C5a stimulus (Example 32); assay type: cell-based; conditions: concentration applied 7.1 μM
Protocol: The assay has been described by Köhl (Köhl 1997 The Anaphylatoxins. In: Dodds, A. W., Sim, R. B. (Eds.), Complement: A Practical Approach. Oxford: 135). Basophile leukemia cells from rats (RBL), which express the human C5a receptor (CD88), are cultivated in DMEM with 10% fetal calf serum, 100 U/ml penicillin, 100 μg/ml streptomycin and 2 mM glutamin (all constituents are from Biochrome, Berlin) at 37° C. and with 10% CO2 until a confluent layer is obtained. All following details refer to a tissue culture flask with 75 cm^2 surface. The used up medium is removed. The cells are washed with 10 ml PBS (Dulbecco's PBS, Biochrome) and then covered with 3 ml cell dissociation solution (CDS, Sigma). The cells are incubated for 1 minute at room temperature. Then the CDS is removed and the cells are incubated for further 10-15 minutes at 37° C. to detach the cells completely from the flask. 20 μl solution of the compound to be testet are used in the assay. The assay solution must not contain more than 2.8% DMSO. The dilution series are prepared in ⅓ or ½ steps. To the 20 μl of the compound solutions 75 μl RBL cells are added which are prepared as follows: After the detachment of the cells from the flask surface they are taken up with 10 ml HAG-CM (20 mM HEPES; 125 mM NaCl, 5 mM KCl, 1 mM CaCl2, 1 mM MgCl2, 0.5 mM glucose, 0.25% BSA. HEPES preparation: 2.3 g/l HEPES salt+2.66 g/l HEPES acid) thermostated at 37° C. The cells are counted and centrifuged (200 g, 10 min). The cell pellet is taken up with pre-heated HAG-CM, and the cell density is adjusted to 2×10^6 Zellen/ml. The cells are incubated for 5 minutes at 37° C. 2.7 μl of a cytochalasin B solution (1000 μg/ml in DMSO, Sigma) are added per ml cell suspension. The Zellen are incubated for another 3 min at 37° C. Then, 75 μl of the cell suspension are added to the 20 μl solution containing the compounds to be tested. Thus a volume of […] per well is obtained. The cells are again incubated for 10 minutes at 37° C. Then 10 μl hrC5a (10.5 nM in HAG-CM, Sigma) are added per well, which is followed by 5 minutes incubation at 37° C. After this the plates are put on ice and centrifuged for 3 minutes at 1200×g and 4° C. 75 μl of the supernatant are added to 100 μl substrate solution (2.7 mg/ml p-nitrophenyl-N-acetyl-b-D-glucosaminide (Sigma) in 42.5 mM sodium acetate, pH 4.5). The plate is incubated for 1 hour at 37° C. Per well 75 μl 0.4 M glycine (pH 10.4) are added. After this the plate can be measured at a wave length of 405 nm. The IC50 value is determined by solving the four parameter equation y=((A−D)/(1+(x/C)^B))+D.
The only difference is the fact that 30 μl of the substance to be tested are mixed with 75 μl of the cell suspension described in example 28. The cells are not pre-incubated and no C5a is added to stimulate enzyme release.

[5] = AB permeability in TC-7 cell based assay (Example 34); assay type: in vitro ADME; conditions: human, Caco-2, TC-7 cells, apical pH 6.5 / basolateral pH 7.4, 120 min
Protocol: Compounds to be tested are prepared at a concentration of 50 μM in HBSS-MES (5 mM, pH 6.5) (from a 10 mM stock solution in 100% DMSO). ^14C-mannitol (about 4 μM) is added and the solution is mixed and centrifuged. The supernatant is added to the apical side of a TC-7 cell culture (passage 15, in 24 well transwell plate) to obtain a DMSO concentration of 1%. At the basolateral side HBSS-HEPES (5 mM, pH 7.4) is placed. Subsequently, the cells are incubated for 120 minutes at 37° C. The integrity of the TC-7 cell layer is checked by means of the added mannitol (Papp <2.5 10^−6 cm/s). The Permeabilität Papp [cm/s] is equal to (VR×CR120)/(Δt×A×(CD,mid−CR,mid)). VR is the volume of the receiver chamber, CR120 the concentration the test compound in the receiver chamber after 120 minutes, Δt the incubation time, A the area of the TC-7 cell layer, CD,mid the midpoint concentration of the test substance in the donor chamber and CR,mid the concentration of the test compound in the receiver chamber.

[6] = Stability (shelf life) as solid TFA salt, RP-HPLC (Example 25); assay type: physicochemical; conditions: light, room temperature, up to 7 days
Protocol: The fractions containing the desired compound are lyophilized. In this way 1-40 mg of the compounds 11 and 13 are isolated as solid. Due to the basic amino groups the compounds are obtained as TFA salts. 0.5-10 mg of the solid are stored under the influence of light at room temperature to determine their stability over time.
The conditions were as follows:
FIG. 1 A): after purification via HPLC (solution in MeCN/H2O/TFA),
FIG. 1 B) after lyophilization (0 days of storage as solid)
FIG. 1 C) after 7 days of storage as solid

C5a receptor [7] = biological target: T1, C5a receptor; conditions: cited from earlier work
[8] = Solubility in aqueous HEPES buffer by HPLC (Example 33); assay type: physicochemical; conditions: kinetic from dmso stock
Protocol: To determine the solubility the compound to be measured is dissolved (e.g, […] of a 5 mM solution in DMSO) in organic solvent (e.g. 198 μl DMSO) as well as in aqueous buffer solution (e.g. 198 μl HEPES buffer). Both solutions are analyzed via analytical HPLC and the areas under the peaks are compared. The value for the organic solution is taken as 100%.

[9] = inhibition of C5a induced enzyme release, read-out: Activity-range (antagonistic activity, IC50 enzyme release)
[10] = read-out: IC50 for the inhibition of C5a induced enzyme release
[11] = ratio of enzyme release IC50 values

Row | Structure (SMILES) | IC50 (C5a receptor [1]) [nM] | IC50 [2, 9] [nM] | IC50 [3] [nM] | Agonism (% of the maximum enzyme release induced by C5a) [4] [%] | IC50 [2, 10] | also measured
1 | CCc1c(N)cc(Cl)c(CC)c1NC(=O)N(c1ccc(C(C)C)cc1)C1CCc2cc(Cl)ccc21 (stereo not shown) [compound 88, 3-(3-amino-5-chloro-2,6-diethyl-phenyl)-1-(5-chloro-indane-1-yl)-1-(4-isopropyl-phenyl)-urea] | 44 | 60 to 200 |  |  |  | 
2 | CCc1c(N)cc(Cl)c(CC)c1NC(=O)N(c1ccc(OC)cc1F)[C@@H](C)c1ccc(Cl)cc1 [compound 102, (S)-3-(3-amino-5-chloro-2,6-diethyl-phenyl)-1-[1-(4-chloro-phenyl)-ethyl]-1-(2-fluoro-4-methoxy-phenyl)-urea] |  |  | 3200 | 0.00 |  | Papp A→B at 120 min, 50 μM [5]: 1.1 ×10⁻⁶ cm/s
3 | CCc1c(N)cc(Cl)c(CC)c1NC(=O)N(Cc1ccc(OC)cc1)c1ccc(C(C)C)cc1 [compound 13] |  |  |  |  |  | Stability on storage as solid [6]: does not show such instabilities
4 | CN(CC(=O)N(Cc1ccccc1F)C1Cc2ccccc2C1)C(c1ccccc1)c1ccccc1 [Compound 10, 2-(Benzhydryl-methyl-amino)-N-(2-fluoro-benzyl)-N-indane-2-yl-acetamide, reference compound] |  | > 5000 |  |  | > 4760 nM | activity, inhibition of C5a induced calcium mobilization (C5a receptor [7]): 465 nM
5 | CCc1c(N)cc(Cl)c(CC)c1NC(=O)N(Cc1ccc(Cl)cc1)c1ccc(NC)cc1 [compound 120, 3-(3-amino-5-chloro-2,6-diethyl-phenyl)-1-(4-chloro-benzyl)-1-(4-methylamino-phenyl)-urea] | 86.5 |  | 1900 |  |  | Improvement of the antagonistic activity by a factor (vs compound 98, CH2 exchanged by NH) [2, 11]: 4.5
6 | CCc1c(N)cc(Cl)c(CC)c1NC(=O)N(Cc1ccc(Cl)cc1)c1ccc(OC)c2cccnc12 [compound 125, 3-(3-amino-5-chloro-2,6-diethyl-phenyl)-1-(4-chloro-benzyl)-1-(5-methoxy-chinolin-8-yl)-urea] |  | 60 to 200 |  | 0.00 |  | Papp A→B at 120 min, 50 μM [5]: 2.9 ×10⁻⁶ cm/s; solubility [8]: 4 µM (≈ 2.09 µg/mL)
7 | Cc1ccccc1C1c2ccccc2CCN1CC(=O)N(Cc1cccc(O)c1)C1Cc2ccccc2C1 (stereo not shown) [Compound 9, N-(3-Hydroxy-benzyl)-N-indane-2-yl-2-(1-o-tolyl-3,4-dihydro-1H-isochinolin-2-yl)-acetamide, reference compound] |  |  |  |  | 7150 nM and 7140 nM | activity, inhibition of C5a induced calcium mobilization (C5a receptor [7]): 24 nM
8 | CCc1c(N)cc(Cl)c(CC)c1NC(=O)N(c1ccc(NC)cc1)[C@@H](C)c1ccccc1 [compound 132, (S)-3-(3-amino-5-chloro-2,6-diethyl-phenyl)-1-(4-methylamino-phenyl)-1-(1-phenyl-ethyl)-urea] | 43.4 | < 60 | 620 |  |  | 
9 | CCc1c(N)cc(Cl)c(CC)c1NC(=O)N(Cc1ccc(OC)cc1)c1ccc(C(C)C)cc1 [compound 31, 3-(3-amino-5-chloro-2,6-diethyl-phenyl)-1-(4-isopropyl-phenyl)-1-(4-methoxy-benzyl)-urea] |  |  |  | 0.12 | 164 nM | Increase of the antagonistic activity by a factor (vs compound 24, NH2 group introduced) [2, 11]: 6.4; solubility [8]: 2 µM (≈ 0.96 µg/mL)
